Results published in patent US9060967B2, “Stable aqueous formulation of (E)-4-carboxystyryl-4-chlorobenzyl sulfone” (ONCONOVA THERAPEUTICS, INC, priority 2010, dated 2015).

Columns and labels:
Type in all cases: physicochemical
[1] = octanol:water partition coefficient (preformulation study)
Protocol: (§1) The physio-chemical properties of ON 01210.Na, as an exemplary efficacious radiation protectant drug, were determined in order to evaluate appropriate formulation approaches for development of a safe, reliable and effective parenteral formulation of this compound and other radioprotective α,β-unsaturated arylsulfones. Evaluation studies included microscopic studies, partition coefficient, pKa, pH solubility studies, pH stability studies under accelerated conditions, solid state characterization of the drug substance, and solid state stability of drug substance under accelerated conditions. […] This drug was reasonably stable in an aqueous environment at biological pH. Therefore, it was determined that ON 01210.Na could be formulated as a shelf stable parenteral formulation.

[2] = pH stability studies under accelerated conditions
Protocol: as §1

[3] = accelerated solid-state stability study of the bulk drug substance
Protocol: as §1

octanol:water partition coefficient [1]: 1.28-2.87 | degradation rate order [2]: pseudo-first-order | pH-stability profile, degradation ([2]; acidic conditions): rapid | pH-stability profile ([2]; neutral and biological pH): better stability | accelerated solid-state stability [3]: no evidence of degradation
SMILES: O=C([O-])c1ccc(/C=C/S(=O)(=O)Cc2ccc(Cl)cc2)cc1.[Na+] [ON 01210.Na, (E)-4-Carboxystyryl-4-chlorobenzylsulfone, Sodium Salt]
